Legend:
hFXR [1] = target: T1, hFXR (Homo sapiens, UniProt Q96RI1); experiment: In Vitro FXR Assay (PGL3), luciferase reporter in transfected CV-1 cells; type: cell-based; conditions: CV-1 cells transfected with hFXR, hRXR, PGL3-ECRE*6-luc; 18 hrs incubation; luminescence
T1 construct: expressed in transfected cells; host or cells: CV-1 cells
T1 sequence (Q96RI1 1-486): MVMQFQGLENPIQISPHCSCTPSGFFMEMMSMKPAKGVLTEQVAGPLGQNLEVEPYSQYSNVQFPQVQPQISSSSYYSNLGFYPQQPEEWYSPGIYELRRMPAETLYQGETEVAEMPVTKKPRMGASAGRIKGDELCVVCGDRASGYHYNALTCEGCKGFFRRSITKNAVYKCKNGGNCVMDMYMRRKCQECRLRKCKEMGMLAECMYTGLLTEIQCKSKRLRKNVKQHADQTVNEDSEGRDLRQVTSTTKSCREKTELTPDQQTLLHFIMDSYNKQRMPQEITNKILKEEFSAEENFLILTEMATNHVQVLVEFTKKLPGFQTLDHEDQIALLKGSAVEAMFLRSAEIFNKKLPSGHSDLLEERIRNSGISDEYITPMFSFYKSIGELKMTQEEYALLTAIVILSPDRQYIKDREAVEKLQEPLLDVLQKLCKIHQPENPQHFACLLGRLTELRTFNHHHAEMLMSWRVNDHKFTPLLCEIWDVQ
T1 sequence (P19793 1-462 partner): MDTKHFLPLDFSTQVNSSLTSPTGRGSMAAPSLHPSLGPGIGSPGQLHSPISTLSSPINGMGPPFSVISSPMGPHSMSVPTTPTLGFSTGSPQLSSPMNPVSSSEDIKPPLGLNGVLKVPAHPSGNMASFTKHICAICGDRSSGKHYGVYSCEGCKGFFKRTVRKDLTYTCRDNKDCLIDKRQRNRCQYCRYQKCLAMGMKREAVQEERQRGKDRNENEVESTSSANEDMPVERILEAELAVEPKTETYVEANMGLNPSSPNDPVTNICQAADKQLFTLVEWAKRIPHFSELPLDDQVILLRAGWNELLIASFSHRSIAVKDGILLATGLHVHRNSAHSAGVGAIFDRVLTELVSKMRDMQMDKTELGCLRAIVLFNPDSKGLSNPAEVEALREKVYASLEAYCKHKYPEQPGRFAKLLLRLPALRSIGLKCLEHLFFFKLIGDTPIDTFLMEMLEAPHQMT
Description: Example B-1: In Vitro FXR Assay (PGL3)
CV-1 cells were seeded at a density of 2,000,000 cells in a T175 flask with DMEM+10% charcoal double-stripped FBS and incubated at 37° C. in a 5% CO2 for 18 h (O/N).
After 18 h of incubation, the medium in the T175 flask was changed with fresh DMEM+10% charcoal super-stripped serum.
To prepare the transfection reaction mixture, the transfection reagent (X-tremeGENE HP from Roche, Cat #06 366 236 001) was added in to a 1.5 mL microcentrifuge tube labelled “A” at a ratio of 1:3 (DNA in g: transfection reagent in μL). OptiMEM medium (Life Technologies, Cat #31985-062) was added accordingly to provide a total volume of 1 mL. The transfection reaction mixture was then briefly vortexed and incubated at room temperature for 5 minutes.
In a separate 1.5 mL microcentrifuge tube labelled “B”, 100 μL OptiMEM and plasmids XPD90Gal pCMXhFXRfl, pCMXhRXRfl+PGL3-ECRE*6-luc+CMX-YFP in the ratio 2 g: 2 g:18 g:3 g were added. This microcentrifuge tube “B” was then briefly vortexed and incubated at room temperature for 5 minutes.
The total volume in tube labelled “A” was then transferred in to tube labelled “B.” The mixture was then briefly vortexed and the transfection:DNA complex was then incubated for about 15-20 minutes at room temperature.
Following incubation, the transfection reagent/DNA mixture complex was then added to cells in the T175 flask and the cells were incubated at […] (O/N) at 37° C. in 5% CO2.
In a 96 well plate, a half logarithmic serial dilution was prepared. OptiMEM was used as the diluent. Using any of one of the compounds described herein, a compound stock solution of 10 mM was prepared. An initial 1:100 dilution was made into the first well for a final concentration of 100 μM. The final concentrations in the 96-well plate was prepared by using a multichannel pipette to transfer 5 μL of the diluted compound to 384-well plate in quadruplicate.
Cells in T175 flask were trypsinized and cells were resuspending in 40 mL phenol red free DMEM+10% charcoal super-stripped FBS. Typically, one T175 flask was sufficient to seed two 384 well plates. CV-1 cells were seeded at 45 μL cell suspension/well using a multichannel pipet or a 384 multidrop dispenser. The cells were then incubated for 18 hrs, overnight.
After removing the plates from the incubator, the medium was flicked out of plate and 384 well plate was turned upside down onto paper towel. The remaining medium was gently tapped out. 15 μL lysis buffer was then added to each well using a multichannel pipet or a 384 well multi-drop dispenser. After incubation for 10 minutes at room temperature on shaker, 30 μL Luciferase buffer was added to each well. Luminescence counts were taken immediately using the Perkin Elmer Envision.
The ability of the compounds disclosed herein to […] FXR activity was quantified and the respective EC50 value was determined. Fex=fexaramine.

hFXR [2] = target: T1, hFXR; experiment: In Vitro FXR Assay (TK), luciferase reporter in transfected CV-1 cells; type: cell-based; conditions: CV-1 cells transfected with hFXR, hRXR, TK-ECRE-luc; 18 hrs incubation; luminescence; compounds with a maximum efficacy of <25% of the Fexaramine control classified as '+'
Description: Example B-2: In Vitro FXR Assay (TK)
CV-1 cells were seeded at a density of 2,000,000 cells in a T175 flask with DMEM+10% charcoal double-stripped FBS and incubated at 37° C. in 5% CO2 for 18 h (O/N).
After 18 h of incubation, the medium in the T175 flask was changed with fresh DMEM+10% charcoal super-stripped serum. In a polypropylene tube, 2500 μL OptiMEM (Life Technologies, Cat #31985-062) was combined with expression plasmids for hFXR, hRXR, TK-ECRE-luc and pCMX-YFP. The tube was then briefly vortexed and incubated at room temperature for 5 minutes. Transfection reagent (X-tremeGENE HP from Roche, Cat #06 366 236 001) was added to the OptiMEM/plasmid mixture vortexed and incubated at room temperature for 20 minutes. Following incubation, the transfection reagent/DNA mixture complex was added to cells in the T175 flask and the cells were incubated at 37° C. in 5% CO2 for 18 h (O/N).
Compounds were serially diluted in DMSO and added to transfected CV-1 cells. The cells were then incubated for 18 hrs. The next day cells were lysed and examined for luminescence.

Structure (SMILES) | Cmpd/Fex (ratio of the EC50 for the test compound relative to the EC50 of the Fexaramine control) (hFXR [1]) | EC50 (hFXR [2])
COC(=O)CN(C)c1cccc(N(Cc2ccc(-c3ccc(N(C)C)cc3)cc2)C(=O)C2CCCCC2)c1 [Compound 10, Methyl 2-((3-(N-((4′-(dimethylamino)-[1,1′-biphenyl]-4-yl)methyl)cyclohexanecarboxamido)phenyl)(methyl)amino)acetate] | + (‘+’ means Cmpd/Fex >100) | 
C/C=C/c1cccc(N(Cc2ccc(-c3ccc(N(C)C)cc3)cc2)C(=O)C2CCCCC2)c1 [Compound 16, (E)-N-((4′-(Dimethylamino)-[1,1′-biphenyl]-4-yl)methyl)-N-(3-(prop-1-en-1-yl)phenyl)cyclohexanecarboxamide] | ++ (‘++’ means Cmpd/Fex >10 & <100) | 3 to 10 µM
COCCNc1cccc(N(Cc2ccc(-c3ccc(N(C)C)cc3)cc2)C(=O)C2CCCCC2)c1 [Compound 4, N-((4′-(dimethylamino)-[1,1′-biphenyl]-4-yl)methyl)-N-(3-((2-methoxyethyl)amino)phenyl)cyclohexanecarboxamide] | +++ (‘+++’ means Cmpd/Fex <10) | 3 to 10 µM
COc1cc(-c2cccc(N(Cc3ccc(-c4ccc(N(C)C)cc4)cc3)C(=O)C3CCCCC3)c2)ccn1 [Compound 3, N-((4′-(Dimethylamino)-[1,1′-biphenyl]-4-yl)methyl)-N-(3-(2-methoxypyridin-4-yl)phenyl)cyclohexanecarboxamide] | +++ (‘+++’ means Cmpd/Fex <10) | 
CCC/C=C/c1cccc(N(Cc2ccc(-c3ccc(N(C)C)cc3)cc2)C(=O)C2CCCCC2)c1 [Compound 7, (E)-N-((4′-(dimethylamino)-[1,1′-biphenyl]-4-yl)methyl)-N-(3-(pent-1-en-1-yl)phenyl)cyclohexanecarboxamide] | ++ (‘++’ means Cmpd/Fex >10 & <100) | 3 to 10 µM
COC(=O)NCc1cccc(N(Cc2ccc(-c3ccc(N(C)C)cc3)cc2)C(=O)C2CCCCC2)c1 [Compound 11, Methyl 3-(N-((4′-(dimethylamino)-[1,1′-biphenyl]-4-yl)methyl)cyclohexanecarboxamido)benzylcarbamate] | + (‘+’ means Cmpd/Fex >100) | 
COc1cncc(-c2cccc(N(Cc3ccc(-c4ccc(N(C)C)cc4)cc3)C(=O)C3CCCCC3)c2)c1 [Compound 1, N-((4′-(Dimethylamino)-[1,1′-biphenyl]-4-yl)methyl)-N-(3-(5-methoxypyridin-3-yl)phenyl)cyclohexanecarboxamide] | +++ (‘+++’ means Cmpd/Fex <10) | ≤ 3 µM
O=C(C1CCCCC1)N(Cc1ccc(-c2ccc(F)cc2)cc1)c1cccc(-c2ccccc2)c1 [Compound 15, N-([1,1′-Biphenyl]-3-yl)-N-((4′-fluoro-[1,1′-biphenyl]-4-yl)methyl)cyclohexanecarboxamide] | + (‘+’ means Cmpd/Fex >100) | ≤ 3 µM
C/C=C\c1cccc(N(Cc2ccc(-c3ccc(N(C)C)cc3)cc2)C(=O)C2CCCCC2)c1 [Compound 17, (Z)-N-((4′-(Dimethylamino)-[1,1′-biphenyl]-4-yl)methyl)-N-(3-(prop-1-en-1-yl)phenyl)cyclohexanecarboxamide] | ++ (‘++’ means Cmpd/Fex >10 & <100) | 
CN(C)CCNc1cccc(N(Cc2ccc(-c3ccc(N(C)C)cc3)cc2)C(=O)C2CCCCC2)c1 [Compound 5, N-((4′-(Dimethylamino)-[1,1′-biphenyl]-4-yl)methyl)-N-(3-((2-(dimethylamino)ethyl)amino)phenyl) cyclohexanecarboxamide] | + (‘+’ means Cmpd/Fex >100) | 
CNC(=O)/C=C/c1cccc(N(Cc2ccc(-c3ccc(N(C)C)cc3)cc2)C(=O)C2CCCCC2)c1 [Compound 12, (E)-N-((4′-(Dimethylamino)-[1,1′-biphenyl]-4-yl)methyl)-N-(3-(3-(methylamino)-3-oxoprop-1-en-1-yl)phenyl)cyclohexanecarboxamide] | ++ (‘++’ means Cmpd/Fex >10 & <100) | 
CN(C)c1ccc(-c2ccc(CN(C(=O)C3CCCCC3)c3cccc(CN4CCCC4=O)c3)cc2)cc1 [Compound 8, N-((4′-(Dimethylamino)-[1,1′-biphenyl]-4-yl)methyl)-N-(3-((2-oxopyrrolidin-1-yl)methyl)phenyl)cyclohexanecarboxamide] | + (‘+’ means Cmpd/Fex >100) | 
COc1cccc(-c2cccc(N(Cc3ccc(-c4ccc(N(C)C)cc4)cc3)C(=O)C3CCCCC3)c2)c1 [Compound 2, N-((4′-(Dimethylamino)-[1,1′-biphenyl]-4-yl)methyl)-N-(3′-methoxy-[1,1′-biphenyl]-3-yl)cyclohexanecarboxamide] | ++ (‘++’ means Cmpd/Fex >10 & <100) | 
CC(C)CNc1cccc(N(Cc2ccc(-c3ccc(N(C)C)cc3)cc2)C(=O)C2CCCCC2)c1 [Compound 6, N-((4′-(Dimethylamino)-[1,1′-biphenyl]-4-yl)methyl)-N-(3-(isobutylamino)phenyl) cyclohexanecarboxamide] | + (‘+’ means Cmpd/Fex >100) | 
CN(C)c1ccc(-c2ccc(CN(C(=O)C3CCCCC3)c3cccc(Oc4ccccc4)c3)cc2)cc1 [Compound 19, N-((4′-(Dimethylamino)-[1,1′-biphenyl]-4-yl)methyl)-N-(3-phenoxyphenyl)cyclohexanecarboxamide] | + (‘+’ means Cmpd/Fex >100) | 

— patent US11214538B2, “Farnesoid X receptor agonists and uses thereof” (Metacrine, Inc., priority 2015, dated 2022)
